# Source: patent US20150328109A1, “DERMAL COMPOSITIONS CONTAINING UNNATURAL HYGROSCOPIC AMINO ACIDS” (MEDPHARM LIMITED, priority 2012, published 2015)
# Tests used:
# [1] = Deliquescence relative humidity (DRH) of a saturated solution in a sealed vessel at 32° C.; format: physicochemical; settings: saturated solution in water (1 mL), 24 hours
# Method: This experiment was to measure the deliquescence relative humidity (DRH) caused by a saturated amino acid solution in a sealed vessel at 32° C.; the lower the DRH, the greater the water holding capacity of the solution measured. Deliquescence relative humidity is the relative humidity at which the compound deliquesces, i.e. the relative humidity in which the compound absorbs so much water that it dissolves within the absorbed water.
# The apparatus is maintained at 32° C. The temperature of 32° C. was chosen for being the temperature of outer stratum corneum. As the amino acids are to eventually be delivered to the outer layer of the skin, then the water holding capacity of these compounds at 32° C. is important.
# The saturated solution is prepared as above by adding the amino acid to water (1 mL, 32° C.), whilst swirling. The total amino acid is weighed before adding to the water and the remaining amino acid so that the mass of compound used can be determined. The saturated solution (1 mL, 32° C.) is then transferred into the vial, again because of partial molar volume causing a change in volume by the addition of the amino acid to the water.
# The temperature and % RH (% Relative Humidity) shown on the thermo-hygrometer are recorded every 30 minutes until the % RH remains constant. The temperature confirms that the temperature experienced by the sample is 32° C.
# [2] = system: RHE tissues; test: RHE irritation assessment Method 2: Mattek's MTT effective time (ET-50) assay; format: cell-based, human
# Text: Method 1 was used to investigate the potential for alpha-hydroxylglycine (α-H-G) and L-homoserine (L-h-S) to cause skin irritation. The protocol is primarily designed and validated for single compounds rather than solutions. Therefore to provide further insight into the potential of N-hydroxyserine and N-hydroxylglycine to cause skin irritation a second protocol was investigated using Mattek's MTT effective time (ET-50) assay which is designed to test mixtures of compounds. In addition two commercially available amino acid related compound (L-serine and glycine) were selected and tested as comparators for N-hydroxyserine and N-hydroxylglycine. […] As a general guideline, the following groupings can be used in assigning expected in vivo irritancy responses based on the ET-50 results obtained: The irritation assessment of the solutions was performed using the protocol described below. Each of the test solutions; […] Damaged tissues were discarded. • (iii) The tissue were transferred into the assay medium and incubated at 37° C., 5% CO2 until the application of the test solutions; […] The working MTT solution was prepared using the following procedure: • (i) MTT concentrate was removed from the freezer and allowed to thaw. The concentrate was diluted with the MTT diluent solution (1 mL of concentrate to 4 mL of MTT diluent solution). • (ii) MTT solution from Step (i) was centrifuged at a g-force of 300 for 5 min to remove any particulates. • (iii) The supernatant of the MTT solution from Step (ii) was stored in the dark at 4° C. for a maximum period of 24 h and used as required. […] The plates were incubated for 3 h (+/−5 min) at 37° C., 5% CO2 and 95% humidified atmosphere. • (vi) The treated tissues were subsequently transferred into a new plate filled with 1 mL of extractant solution. • (vii) The plates were sealed using Parafilm® to stop evaporation and protected from light using foil before extract at 2-8° C. to minimise evaporation. • (viii) Following extraction the RHE tissue were removed from the wells and an additional 1 mL of extractant solution was added. Using a pipette the extraction solution was mixed and made visually homogenous. • (ix) The solution from Step (viii) was transferred in to n=3 wells (200 μL per well) using an automatic pipette of a 96 well plate and the optical density was measured at a wavelength of 570 nm.
# [3] = mass used printed beside the name
"DRH [1, 3] [%]",Compound,also measured
83.1,C[C@H](N)C(=O)O [Alanine],
91.2,NC(=O)C[C@H](N)C(=O)O [Asparagine],
100.0,N[C@@H](CC(=O)O)C(=O)O [Aspartic acid],
89.6,N[C@@H](CS)C(=O)O [Cysteine],
,N[C@H](CO)C(=O)O [D-serine],DRH ([1]; D-serine 0.95 g): 85.40%; DRH ([1]; D-serine 1.2 g): 82.13%
79.13,"NCC(=O)O [Glycine, reference compound]",expected in vivo irritancy from ET-50 [2]: non-irritants; impact on the viability of the RHE tissues [2]: no significant impact
44.6,O=C(O)[C@@H]1CCCN1 [L-Proline],
82.53,"N[C@@H](CO)C(=O)O [L-serine, reference compound]",expected in vivo irritancy from ET-50 [2]: non-irritants; impact on the viability of the RHE tissues [2]: no significant impact
86.0,C[C@@H](O)[C@H](N)C(=O)O [Threonine],
75.03,NC(N)=O [Urea],

Compound,"DRH [1, 3] [%]",also measured
O=[N+]([O-])[O-].O=[N+]([O-])[O-].[Zn+2] [Zinc Nitrate],45.8,
